Test results taken from US20230158071A1, “TUMOR COMBINED IMMUNOTHERAPY” (CRAGE medical Co., Limited, priority 2018, published 2023).

Tests used:
[1] = system: exhaustion-related proteins PD1, LAG3 and TIM3 on the surface of CAR-T cells; experiment: Flow cytometry of exhaustion-related proteins on CAR-T cells in co-culture; format: cell-based, mouse
Description: The experimental groups are as follows: 806-mCD28z-CAR-T group (or denoted as 806-28Z), olaparib pretreatment group, and olaparib combined treatment group;
The olaparib pretreatment group comprises: 806-mCD28z-CAR-T+1 μM olaparib pretreatment group (or denoted as 806-28Z+Olaparib 1 μM pretreatment), 806-mCD28z-CAR-T+5 μM olaparib pretreatment group (or denoted as 806-28Z+Olaparib 5 μM pretreatment);
Olaparib combined treatment group comprises: 806-mCD28z-CAR-T+1 μM olaparib combined treatment group (or denoted as 806-28Z+Olaparib 1 μM), 806-mCD28z-CAR-T+5 μM olaparib combined treatment group (or denoted as 806-28Z+Olaparib 5 μM).
(§1) Olaparib pretreatment group: different concentrations of olaparib (1 μM, 5 μM) are respectively added to a medium for culturing E0771-EGFRvIII or 4T1-EGFRvIII tumor cells, after culturing at 37° C. for 24 hours, the cells are treated with trypsin and resuspended in fresh medium. 806-mCD28z-CAR T cells in Example 1 are taken to co-incubate with E0771-EGFRVIII or 4T1-EGFRvIII cells pretreated with different concentrations of olaparib at a ratio of 1:1; 16 hours later, the proliferation of CAR-T cells and the expression levels of the T cell exhaustion-related proteins PD1, LAG3 and TIM3 on the surface of CAR-T cells are detected by flow cytometry.
as §1, with “combined treatment” for “pretreatment”, “E0771-EGFRvIII” for “E0771-EGFRVIII”, “1:1; after corresponding concentrations of olaparib (1 μM, 5 μM) are respectively added to the medium for” for “1:1;”, “hours,” for “hours later,”, “LAG-3” for “LAG3”

E0771-EGFRvIII cells = experiment: CCK8 proliferation assay, olaparib on E0771-EGFRvIII breast cancer cells; format: cell-based, mouse
Description: Since the EGFR287-302 epitope is only exposed in EGFRvIII or tumors overexpressing EGFR, this epitope is hidden in normal tissues (Gan H K et al., Targeting of a conformationally exposed, tumor-specific epitope of EGFR as a strategy for cancer therapy. Cancer Res. 2012, 72(12):2924-2930), conventional methods in molecular biology are used to establish E0771, 4T1 mouse breast cancer cell models (E0771-EGFRvIII, 4T1-EGFRvIII) that overexpress mouse EGFR inserted with amino acid epitope at positions 287-302 of human EGFR. Subsequent research is performed to screen EGFRvIII target-positive cells by cell flow cytometry (FIG. 2A). E0771, 4T1 cells are purchased from the American Type Culture Collection (ATCC).
As an effective inhibitor of PARP1, olaparib may inhibit PARP1 to participate in DNA damage repair process. In mouse breast cancer cell lines and mouse T cells and CART cells, different levels of PARP1 expression are detected (FIG. 2B). Therefore, CCK8 proliferation assay is required to detect the effect of olaparib on proliferation of tumor cells and CART cells.
806-m28Z CAR-T cells in Example 1 are taken to spread in a 96-well plate with 1×10^4 cells per well and 100 μl medium. Breast cancer cells E0771-EGFRvIII and 4T1-EGFRvIII are taken to spread in a 96-well plate with 1×10^4 cells per well and 100 μl medium. Different concentrations of olaparib are taken to add to the cells to make 10 concentration gradients (i.e., the treatment concentrations of olaparib are respectively 50 μM, 20 μM, 10 μM, 5 μM, 2.5 μM, 1 μM, 0.1 μM, 0.01 μM, 0.001 μM, 0 μg/ml). After 48 hours of drug treatment for cells of different groups, 10 μl of CCK8 substrate color reagent (Dojindo) is added to each well; after incubating for 1 hour at 37° C., the absorbance at 450 nm is measured by a microplate reader, calculating the cell viability respectively.
The formula for calculating the cell viability is as follows:
Cell viability (%)=[A (adding drug)−A (blank)]/[A (without adding drug)−A (blank)]

[2] = olaparib combined treatment group

Q: With O=C(c1cc(Cc2n[nH]c(=O)c3ccccc23)ccc1F)N1CCN(C(=O)C2CC2)CC1 [olaparib] as the compound, how does the “expression level of LAG3 on the surface of CAR-T cells” value [1, 2] read?
A: The value was “do not change significantly”.

Q: And the “expression level of PD1 on the surface of CAR-T cells” value [1, 2]?
A: Its value is “do not change significantly”.

Q: What about the “expression level of TIM3 on the surface of CAR-T cells” value [1, 2] of the same compound?
A: The value was “do not change significantly”.

Q: And the “expression level of LAG3 on the surface of CAR-T cells” value ([1]; olaparib pretreatment group)?
A: The value was “do not change significantly”.

Q: And the “expression level of PD1 on the surface of CAR-T cells” value ([1]; olaparib pretreatment group)?
A: Its value is “do not change significantly”.

Q: And the “expression level of TIM3 on the surface of CAR-T cells” value ([1]; olaparib pretreatment group)?
A: The value was “do not change significantly”.

Q: And the “inhibition rate of proliferation of E0771-EGFRVIII cell line” value (E0771-EGFRvIII cells; 1 μM and higher concentration of olaparib, 48 hours, CCK8)?
A: The value was 65%-90%.

Q: What about the “proliferation of E0771-EGFRVIII cells” value (E0771-EGFRvIII cells; 1 μM olaparib) of the same compound?
A: Its value is “inhibited”.

Q: And the “concentration that may inhibit the growth of tumor cells” value (E0771-EGFRvIII cells; in vitro, tumor cells not specified further)?
A: Its value is “higher than 104”.

Q: And the “proliferation of E0771-EGFRVIIII cells” value (E0771-EGFRvIII cells; olaparib)?
A: Its value is “inhibited”.
